One molecule from patent publication US10100011B2, “Pentadienoyl piperidine derivative and use thereof” (Industry-Academic Cooperation Foundation, Yonsei University, priority 2014, dated 2018) can be followed below.

In the test the test system is C57BL/6J mice. Kind of test: Inflammatory cytokine concentrations in blood of mice fed high-fat diet (ELISA). In kind it is in vivo, mouse. The note with it: about 0.05% compound in high-fat diet, 10 weeks. Here is the method:
An obesity induction diet used in this experiment was a high-fat diet (HFD: 40% fat calories, 17 g of lard+3% corn oil/100 g diet), and the compositions of diets including the LJ-2501, LJ-2488, LJ-2495, LJ-2496 compounds were identical to that of HFD, except that each of the compounds was included in an amount of about 0.05% (Table 2). As a control drug, an anti-obesity drug, sibutramine (Sibut), was added in an amount of about 0.01% to the high-fat diet and a normal diet group (Chow) was fed with commercial rodent chow.
5-week old 40 male C57BL/6J mice (Orient Bio., Korea) were fed with hard feed and accommodated in a laboratory environment for one week. Subsequently, in accordance with a randomized block method, the mice were randomly grouped into a normal diet group, a high-fat diet control group, two experimental substance groups, and […] and raised for a total of 10 weeks (n=8/group). Diets were supplied with water between 10 am and 11 am every day. An intake amount was measured every day and the body weights of the mice were measured every week. To prevent temporal weight change due to feed intake, feedboxes were removed and, after two hours, the body weights were measured. The experimental animals were fasted for 12 hours or more and then anesthetized with diethyl ether, followed by collecting blood, liver, and visceral adipose tissues (epididymal fat, perirenal fat, mesenteric fat, and retroperitoneal fat). The collected samples were washed with 0.1 M phosphate buffered saline (pH 7.4) and then weighed. Blood samples collected from abdominal aortas were centrifuged at 1000×g for 15 minutes, thereby separating plasma.
The concentrations of TNFα, MCP-1, IL-6, leptin, and insulin in plasma were measured according to an ELISA method using the Mouse Adipokine Magnetic Bead Panel kit (MADKMAG-71K, EMD Millipore Corporation, Mass., USA).

Take `CSc1ccc(/C=C/C=C/C(=O)N2CCCCC2)cc1` [LJ-2501, (2E,4E)-5-(4-(methylthio)phenyl)-1-(piperine-1-yl)penta-2,4-diene-1-one]: the “blood IL-6 concentration, reduction compared to HFD” value was 38%; the “blood MCP-1 concentration, reduction compared to HFD” value is on record as 22%; the “blood TNF-α concentration, reduction compared to HFD” value came out at 25%; the “blood leptin concentration, reduction compared to HFD” value is recorded as 25%.
